Earlier results as cited in patent US7192914B1, “Prevention of atherosclerosis and undesired blood clotting by reducing von Willebrand factor” (The Regents of the University of California, priority 1999, dated 2007).

System: human endothelial cells
Conditions: human endothelial cells treated with tunicamycin; Wagner et al. (1986) J. Cell Biol. 102: 1320-4

In the case of tunicamycin, the “effect on secreted vWF” value is given as “absence of secreted vWF”.
